“Also recorded” adds a separate entry of the source.
Columns and labels:
[1] = test system: nonalcoholic fatty liver in mice; settings: cited from earlier work
mice = settings: repeated for 13 weeks; cited from earlier work
[2] = test system: western diet NASH mouse models; settings: cited from earlier work
[3] = test system: normal persons and nonalcoholic fatty liver patients; settings: 10-25 mg per adult; cited from earlier work
CD-1(ICR) mice = settings: mouse, in vivo; cited from earlier work
[4] = test system: MCD diet-fed NASH model (8 weeks); assay: Efficacy in NASH model fed with methionine and choline deficient (MCD) diet for 8 weeks; assay type: in vivo, male C57BL/6 mice; settings: MCD diet 8 weeks; for alleviative effect on NASH / inhibitory activity against NASH: compared to the negative control, RSV and DDB complex 200 mg/kg
Text: A methionine and choline deficient (MCD) diet-fed model, in which steatosis has been induced as a result of the supply of a diet deficient in methionine and choline, which each play an important role in beta oxidation and very low-density lipoprotein, (VLDL) synthesis, is widely used as a model for observing an effect of alleviating NASH because it suffers from histopathologically serious lobular inflammation.
An MCD diet (RESEARCH DIETS, Product No: A02082002B) was fed 7-week-old male C57BL/6 mice for 4 weeks to induce nonalcoholic fatty liver and then for an additional 4 weeks during which the hydroquinone derivative compound 2,3,5-trimethylhydroquinone-1-hexylether (compound 1) according to the present invention and the comparative control drugs were orally administered to the mice at the specific doses repeatedly as indicated for test groups G3-G8 in Table 2. Alleviative effects on NASH were assessed by clinicopathological and histopathological examinations.
The normal group was fed with a normal diet (RESEARCH DIETS, Product No: A02082003B), but not the MCD diet. To the negative control, only the excipient 0.5% methyl cellulose (MC) aqueous solution was administered after the MCD diet was fed thereto. […] For resveratrol and the DDB hepatoprotectant, the daily dose was set forth to be 200 mg/kg.
The liver tissues were resected from mice fed with MCD diet for 8 weeks and prepared into hematoxylin-eosin (H&E) stained slides, as in the histopathological examination method of Test Example 1. Based on the criteria of Table 1, changes in 1) steatosis, 2) lesions such as hepatic lobular inflammation, etc. (lobular inflammation), and 3) ballooning degeneration of hepatocytes (ballooning) were analyzed and the scores were summed to afford NAFLD activity scores for evaluating therapeutic effects on NASH.

[5] = test system: MCD diet-fed NASH model (12 weeks); assay: Efficacy in NASH model fed with MCD diet for 12 weeks; assay type: in vivo, male C57BL/6 mice; settings: MCD diet 12 weeks
Text: The duration of feeding MCD diet was extended to a total of 12 weeks to increase the induction level of NASH. To this end, male C57BL/6 mice at 7 weeks of age were fed with a methionine and choline-deficient diet for 8 weeks to induce nonalcoholic fatty liver and then subjected to the same repeat administration program at the same doses for 4 weeks as in Table 2.

[6] = test system: FFC diet-fed non-alcoholic steatohepatitis model; assay: Efficacy in fat-, fructose- and cholesterol-rich (FFC) diet-fed non-alcoholic steatohepatitis model; assay type: in vivo, male C57BL/6 mice
Text: FFC diet (fat-, fructose-, and cholesterol-rich diet) (RESEARCH DIETS, Product No.: D12079B) was fed to male C57BL/6 mice 6-7 weeks old for 16 weeks to induce nonalcoholic fatty liver. Only animals with a NAFLD activity score (NAS) of 3.2 or more were selected by biopsy. Two weeks after biopsy, the animals were divided into three test groups including a negative control injected with a 0.5% methyl cellulose (MC) aqueous solution only (FFC control) and compound 1 groups injected with a solution of compound 1 (2,3,5-trimethylhydroquinone-1-hexylether compound, 30 mg/kg and 200 mg/kg) in a 0.5% MC aqueous solution. Compound 1 was administered for a total of 2 months and evaluated for alleviative efficacy for NASH by histopathological examination.
For histopathological examination, the mice were sacrificed and subjected to hepatectomy. The liver tissues thus obtained were prepared into hematoxylin-eosin (H&E) stained slides. In brief, the resected liver tissues were fixed in 4% paraformaldehyde at 4° C. for 24 hours, washed with flowing water, embedded into paraffin, and sectioned into blocks 3-4 μm thick. The sectioned tissue was attached to a coated slide, de-paraffinized with xylene, and rehydrated with graded alcohols (99%, 95%, 90%, 80%, and 70% ethanol (EtOH)) before histological staining. The sectioned tissues were stained with hematoxylin for 5 min and washed with flowing water for 5 min, following by destaining with 1% HCl alcohol and ammonia. Subsequently, the tissues were washed with flowing water for 10 min, counterstained with eosin for 1 min, and dehydrated in the reverse order of the hydration before mounting.
The H&E-stained slides were histopathologically assessed under a microscope and scored according to the NAFLD activity score (NAS) criteria given in Table 1. NAFLD activity scores are expressed as a sum of assessment scores for changes in 1) steatosis, 2) lesions such as hepatic lobular inflammation, etc. (lobular inflammation), and 3) ballooning degeneration of hepatocytes (ballooning) and are widely used for evaluating the severity of NASH.

[7] = test system: high-fat diet-fed obesity and NASH model; assay: Efficacy in obesity and NASH model fed with high-fat diet (HFD); assay type: in vivo, male C57BL/6 mice
Experimental: High-fat diet with 60 kcal % (RESEARCH DIETS, Product No: D12492) was fed to 7-week-old male C57BL/6 mice for 16 weeks to induce nonalcoholic fatty liver, followed by repeatedly administering test substances, along with the high-fat diet, via an oral route for 9 weeks from weeks 17 to 25. Alleviative effects on NASH were assessed by clinicopathological and histopathological examinations.
The test groups included a normal control which was not fed with HFD, but with a normal diet (10 kcal % fat diet, RESEARCH DIETS, Product No: D12450B), a negative control which was fed with HFD and then with the excipient 0.5% methyl cellulose (MC) aqueous solution alone, compound 1 (2,3,5-trimethylhydroquinone-1-hexylether)-administered groups (30, 100, 200 mg/kg), and comparative controls (obeticholic acid 30 mg/kg, pioglitazone 10 mg/kg, and DDB hepatoprotectant 200 mg/kg).
During repeatedly oral administration of the test substances for 9 weeks as in the assay method of (1), the mice were observed and recorded for weight gain, food intake, and general symptoms.
Liver tissues were resected from HFD-fed mice and prepared into hematoxylin-eosin (H&E) stained slides, as in the histopathological examination method of Test Example 1. Based on the criteria of Table 1, changes in 1) steatosis, 2) lesions such as hepatic lobular inflammation, etc. (lobular inflammation), and 3) ballooning degeneration of hepatocytes (ballooning) were analyzed and the scores were summed to afford NAFLD activity scores for evaluating therapeutic effects on NASH.

[8] = test system: high-fat diet-induced insulin resistance; assay: Insulin resistance assay in high-fat diet-fed mice; assay type: in vivo, male C57BL/6 mice; settings: week 7 of administration, vs negative control and other drug controls
Experimental: An insulin resistance assay was conducted on week 7 of administration of compound 1 to examine the effect of compound 1 on the insulin resistance induced by high-fat diet. For the insulin resistance assay, the mice were fast for 4 hours and intraperitoneally injected with insulin (0.7 IU/kg), followed by measuring blood glucose levels every 30 min. Insulin resistance was digitized for quantitative comparison. In this regard, while pre-insulin blood levels were set forth to be baselines, areas under the curves of reduced blood glucose levels were digitized into iAUC values (FIG. 14). Here, a smaller iAUC value means higher insulin resistance and a larger iAUC value means higher insulin sensitivity.

rats [9] = assay: Single-dose oral administration toxicity assay for rats; assay type: in vivo; settings: single oral dose as high as 2000 mg/kg
rats [10] = assay: Toxicity assay of repetitive oral administration for 13 weeks; assay type: in vivo; settings: repeated for 13 weeks
beagle dogs = assay: Maximum tolerance dose in beagle dogs; assay type: in vivo
adult = assay: Clinical trial phase 1 (single and 14-day repetitive administration); assay type: in vivo, human; settings: for abnormal responses (such as dyslipidemia) after repetitive administration: up to 1,000 mg per adult for 14 days

CCc1ccc(CCOc2ccc(CC3SC(=O)NC3=O)cc2)nc1 (stereo not shown) [Pioglitazone, pioglitazone]
dose that aggravates fatty liver [1]: 25 mg/kg
dose at which subject death occurred (mice): ≥ 320 mg/kg
dose causing cardiac adverse effects (mice): ≥ 100 mg/kg

CC[C@H]1[C@@H](O)[C@@H]2[C@H](CC[C@]3(C)[C@@H]([C@H](C)CCC(=O)O)CC[C@@H]23)[C@@]2(C)CC[C@@H](O)C[C@@H]12 [Obeticholic acid, obeticholic acid]
dose that aggravated NAFLD (liver fibrosis worsen, ALT level increased) [2]: ≥ 40 mg/kg
total cholesterol and LDL cholesterol levels (side effect) [3]: increasing total cholesterol and LDL cholesterol levels
dose causing serious side effects such as death of animals (CD-1(ICR) mice): ≥ 175 mg/kg

Oc1ccc(C=Cc2cc(O)cc(O)c2)cc1 [Resveratrol, resveratrol, reference compound]
alleviative effect on NASH / inhibitory activity against NASH [4]: did not exhibit an alleviative effect on NASH
alleviative effect on NASH ([5]; 200 mg/kg, compared to the negative control): did not exhibit an alleviative effect on NASH

CCCCCCOc1cc(C)c(O)c(C)c1C [compound 1, 2,3,5-trimethylhydroquinone-1-hexylether]
fatty liver ([6]; 30 and 200 mg/kg for 2 months, dose-dependent, FIG. 2): alleviated
NAFLD activity scores ([6]; 30 and 200 mg/kg for 2 months, dose-dependent, FIG. 3): alleviated
lobular inflammatory cellular infiltration (lobular inflammation) ([6]; compound 1 30 and 200 mg/kg for 2 months, vs FFC control, FIG. 1): decrease lobular inflammatory cellular infiltration
ALT level ([4]; 200 mg/kg, vs negative control and comparative control groups, FIG. 6): remarkably reduced
alleviative effect on NASH / inhibitory activity against NASH [4]: excellent inhibitory activity against NASH
effect of reducing lobular inflammatory cellular infiltration ([4]; oral 30 and 200 mg/kg for 4 weeks, vs MCD control, FIG. 4): remarkable
NAFLD activity scores ([4]; FIG. 5): reduce
anti-inflammatory efficacy compared to pioglitazone (PGZ) and obeticholic acid (OCA) ([4]; PGZ 10 mg/kg, OCA 30 mg/kg): excellent anti-inflammatory efficacy
lobular inflammatory cellular infiltration ([5]; oral 30 and 200 mg/kg for 4 weeks, vs MCD control, dose-dependent, FIG. 7): reduced lobular inflammatory cellular infiltration
NAFLD activity scores ([5]; vs MCD control, dose-dependent, FIG. 8): lowered NAFLD activity scores
anti-inflammatory effect compared to pioglitazone (PGZ) and obeticholic acid (OCA) ([5]; PGZ 10 mg/kg, OCA 30 mg/kg): excellent anti-inflammatory effect
suppressive effect on lobular inflammation ([7]; 200 mg/kg, compared to the other drug groups): remarkably highly suppressive effect
fatty liver ([7]; 30, 100, 200 mg/kg, vs HFD control, dose-dependent): alleviated
hepatic lobular cellular infiltration ([7]; 30, 100, 200 mg/kg, vs HFD control, dose-dependent, FIG. 15): alleviated
blood levels of cholesterol ([7]; HFD model, compared to the negative control, FIG. 19(A)): reduced
blood levels of triglyceride ([7]; HFD model, compared to the negative control, FIG. 19(B)): reduced
ALT ([7]; HFD model, relative to normal levels, FIG. 17): recovered
AST ([7]; HFD model, relative to normal levels, FIG. 18): recovered
ALT levels vs the other drug controls ([7]; HFD model, FIG. 17): further reduced
AST levels vs the other drug controls ([7]; HFD model, FIG. 18): further reduced
accumulation of visceral fats such as epididymal fats (epididymal fat weights) ([7]; autopsy after 9 weeks oral administration, FIG. 11): excellent effect of inhibiting the accumulation of visceral fats
therapeutic effects on NASH by histopathological examinations (lobular inflammation, NAFLD activity scores) ([7]; compared to the other drugs, FIGS. 15 and 16): excellent therapeutic effects on NASH
weight gain increments resulting from the intake of high-fat diet ([7]; oral 30, 100, 200 mg/kg for 9 weeks, vs HFD control, FIG. 9): remarkably reduced
blood glucose level upon insulin administration ([8]; 4 h fast, insulin 0.7 IU/kg i.p., FIG. 13): reduced in blood glucose level more fast
suppressive effect on high-fat diet-induced insulin resistance (iAUC values) ([8]; FIG. 14): higher suppressive effect on high-fat diet-induced insulin resistance
mortality (rats [9]): did not cause mortality
side effects such as death, weight loss, organ failure (rats [10]; dose as high as 500 mg/kg): did not invoke significant side effects; also recorded: no side effects such as death, weight loss, organ failure, etc. were detected
changes in weight gain, food consumption, urological and serological examinations (rats [10]; up to 500 mg/kg, FIG. 12): No changes attributed to the administration of compound 1 were detected
maximum tolerance dose (beagle dogs): 2,000 mg/kg
abnormal responses after single dose (adult; single dose of up to 2,000 mg per adult): no abnormal responses were observed
abnormal responses (such as dyslipidemia) after repetitive administration (adult): no abnormal responses, such as dyslipidemia, were reported; also recorded: no abnormal responses were observed
abnormal responses (such as dyslipidemia) after repetitive administration (adult; listed as 2,3,5-trimethylhydroquinone-1-hexylether): no abnormal responses were observed
